{"source": "patent US11820822B2", "about": "“Methods for sensitizing cancer cells to T cell-mediated killing by modulating molecular pathways” (DANA-FARBER CANCER INSTITUTE, INC., priority 2017, dated 2023)", "key": {"[1]": {"system": "B16F10-Cas9 cells co-cultured with Pmel-1 T cells", "test": "Genome-scale CRISPR-Cas9 screen, selection with Pmel-1 T cells", "type": "cell-based, mouse", "details": "for Pmel+ (sgRNA Log(2) fold change, Pmel-1 selection versus control T cells): Table 3, B16F10-Cas9 cells pre-treated with IFNγ, co-cultured with Pmel-1 T cells 1:1 for three days, negative = depleted, positive = enriched; for logFC: Log(2) fold change of gRNAs per gene, genes depleted in Pmel-1 screen"}, "[2]": {"system": "B16F10-Cas9 cells pulsed with SIINFEKL peptide, co-cultured with OT-I T cells", "test": "Genome-scale CRISPR-Cas9 screen, selection with OT-I T cells", "type": "cell-based, mouse", "details": "for OT1 (sgRNA Log(2) fold change, OT-I selection versus control T cells): Table 3, B16F10-Cas9 cells pulsed with SIINFEKL, co-cultured with OT-I T cells 1:1 for one day, negative = depleted, positive = enriched; for logFC: Log2 fold change of gRNAs per gene, OT-I screen, genes depleted (FDR < 0.05)"}}, "data": [{"substance": "CCTGGGTACCAACTGACGAA (chemistry not fully specified)", "values": [{"measurement": "Pmel+ (sgRNA Log(2) fold change, Pmel-1 selection versus control T cells)", "setting": "[1]", "result": -2.96}, {"measurement": "OT1 (sgRNA Log(2) fold change, OT-I selection versus control T cells)", "setting": "[2]", "result": -2.91}]}, {"substance": "GAATTGCAACGCCCACACCG (chemistry not fully specified)", "values": [{"measurement": "Pmel+ (sgRNA Log(2) fold change, Pmel-1 selection versus control T cells)", "setting": "[1]", "result": 0.39}, {"measurement": "OT1 (sgRNA Log(2) fold change, OT-I selection versus control T cells)", "setting": "[2]", "result": -3.93}]}, {"substance": "ACATTGATACGCACACTCAC (chemistry not fully specified)", "values": [{"measurement": "Pmel+ (sgRNA Log(2) fold change, Pmel-1 selection versus control T cells)", "setting": "[1]", "result": 1.41}, {"measurement": "OT1 (sgRNA Log(2) fold change, OT-I selection versus control T cells)", "setting": "[2]", "result": -2.37}]}, {"substance": "ATGCAGATAATCCGCCAAAG (chemistry not fully specified)", "values": [{"measurement": "Pmel+ (sgRNA Log(2) fold change, Pmel-1 selection versus control T cells)", "setting": "[1]", "result": 0.00}, {"measurement": "OT1 (sgRNA Log(2) fold change, OT-I selection versus control T cells)", "setting": "[2]", "result": -2.49}]}, {"substance": "GAAGACCAAAGAAGTTCATG (chemistry not fully specified)", "values": [{"measurement": "Pmel+ (sgRNA Log(2) fold change, Pmel-1 selection versus control T cells)", "setting": "[1]", "result": 2.37}, {"measurement": "OT1 (sgRNA Log(2) fold change, OT-I selection versus control T cells)", "setting": "[2]", "result": -0.52}]}, {"substance": "TGGAATTATGGTCAAAGTAG (chemistry not fully specified)", "values": [{"measurement": "Pmel+ (sgRNA Log(2) fold change, Pmel-1 selection versus control T cells)", "setting": "[1]", "result": 0.96}, {"measurement": "OT1 (sgRNA Log(2) fold change, OT-I selection versus control T cells)", "setting": "[2]", "result": -2.20}]}, {"substance": "Chic2 (guide GCTCAAGTACTCGCCCGACC; chemistry not fully specified)", "values": [{"measurement": "logFC", "setting": "[2]", "result": "−2.09"}]}, {"substance": "TCCCTTTGATGTGTTCCACG (chemistry not fully specified)", "values": [{"measurement": "Pmel+ (sgRNA Log(2) fold change, Pmel-1 selection versus control T cells)", "setting": "[1]", "result": 4.23}, {"measurement": "OT1 (sgRNA Log(2) fold change, OT-I selection versus control T cells)", "setting": "[2]", "result": 3.40}]}, {"substance": "TCATAGCCAGAGCATACTCT (chemistry not fully specified)", "values": [{"measurement": "Pmel+ (sgRNA Log(2) fold change, Pmel-1 selection versus control T cells)", "setting": "[1]", "result": -1.33}, {"measurement": "OT1 (sgRNA Log(2) fold change, OT-I selection versus control T cells)", "setting": "[2]", "result": -3.24}]}, {"substance": "TATACCAATACGCAAATACC (chemistry not fully specified)", "values": [{"measurement": "Pmel+ (sgRNA Log(2) fold change, Pmel-1 selection versus control T cells)", "setting": "[1]", "result": 4.34}, {"measurement": "OT1 (sgRNA Log(2) fold change, OT-I selection versus control T cells)", "setting": "[2]", "result": 4.07}]}, {"substance": "GAACACTCAGCAAATTACAG (chemistry not fully specified)", "values": [{"measurement": "Pmel+ (sgRNA Log(2) fold change, Pmel-1 selection versus control T cells)", "setting": "[1]", "result": -0.81}, {"measurement": "OT1 (sgRNA Log(2) fold change, OT-I selection versus control T cells)", "setting": "[2]", "result": -2.58}]}, {"substance": "GGTATTCCCAGCATACGACA (chemistry not fully specified)", "values": [{"measurement": "Pmel+ (sgRNA Log(2) fold change, Pmel-1 selection versus control T cells)", "setting": "[1]", "result": 5.25}, {"measurement": "OT1 (sgRNA Log(2) fold change, OT-I selection versus control T cells)", "setting": "[2]", "result": 3.32}]}, {"substance": "Mrps21 (guide GCGTCGTCGACTTATGACTT; chemistry not fully specified)", "values": [{"measurement": "logFC", "setting": "[2]", "result": "−2.09"}]}, {"substance": "CCCACGAATTCGTCACAGGG (chemistry not fully specified)", "values": [{"measurement": "Pmel+ (sgRNA Log(2) fold change, Pmel-1 selection versus control T cells)", "setting": "[1]", "result": 2.63}, {"measurement": "OT1 (sgRNA Log(2) fold change, OT-I selection versus control T cells)", "setting": "[2]", "result": 1.32}]}, {"substance": "TCTTAAAGCTACGGTGTAAG (chemistry not fully specified)", "values": [{"measurement": "Pmel+ (sgRNA Log(2) fold change, Pmel-1 selection versus control T cells)", "setting": "[1]", "result": -0.87}, {"measurement": "OT1 (sgRNA Log(2) fold change, OT-I selection versus control T cells)", "setting": "[2]", "result": -2.41}]}, {"substance": "CTTGGTCAAATACACTACAG (chemistry not fully specified)", "values": [{"measurement": "Pmel+ (sgRNA Log(2) fold change, Pmel-1 selection versus control T cells)", "setting": "[1]", "result": 2.66}, {"measurement": "OT1 (sgRNA Log(2) fold change, OT-I selection versus control T cells)", "setting": "[2]", "result": 1.61}]}, {"substance": "AGAAGCCACTCGGACTACTG (chemistry not fully specified)", "values": [{"measurement": "Pmel+ (sgRNA Log(2) fold change, Pmel-1 selection versus control T cells)", "setting": "[1]", "result": 2.77}, {"measurement": "OT1 (sgRNA Log(2) fold change, OT-I selection versus control T cells)", "setting": "[2]", "result": -0.30}]}, {"substance": "TGATGCTGGCCTCTATACTG (chemistry not fully specified)", "values": [{"measurement": "Pmel+ (sgRNA Log(2) fold change, Pmel-1 selection versus control T cells)", "setting": "[1]", "result": -1.90}, {"measurement": "OT1 (sgRNA Log(2) fold change, OT-I selection versus control T cells)", "setting": "[2]", "result": -3.28}]}, {"substance": "CTTCAGATCTCTCTCGAATG (chemistry not fully specified)", "values": [{"measurement": "Pmel+ (sgRNA Log(2) fold change, Pmel-1 selection versus control T cells)", "setting": "[1]", "result": -2.11}, {"measurement": "OT1 (sgRNA Log(2) fold change, OT-I selection versus control T cells)", "setting": "[2]", "result": -2.84}]}, {"substance": "Ctps", "values": [{"measurement": "logFC", "setting": "[2]", "result": "−1.69"}]}, {"substance": "Tial1 (guide AATGCAATTGTGCATATGGG; chemistry not fully specified)", "values": [{"measurement": "logFC", "setting": "[1]", "result": "−2.01"}]}, {"substance": "Cd36 (guide TAGGATATGGAACCAAACTG; chemistry not fully specified)", "values": [{"measurement": "logFC", "setting": "[1]", "result": "−2.18"}]}, {"substance": "Nudcd2 (guide GGTTCCTTGCGGGACTCCGT; chemistry not fully specified)", "values": [{"measurement": "logFC", "setting": "[2]", "result": "−2.09"}]}, {"substance": "Sepsecs (guide CACCGGATCGTCCAATTCCG; chemistry not fully specified)", "values": [{"measurement": "logFC", "setting": "[2]", "result": "−2.62"}]}]}
